Reference: patent publication US20120053165A1, “Novel Phenyl Imidazoles and Phenyl Triazoles As Gamma-Secretase Modulators” (Pfizer Inc., priority 2009, published 2012)
Structures can show the parent of a compound that is named as a salt.

Tested on: production of amyloid beta protein Aβ(1-42) in human WT-APP overexpressing CHO cells
Details: Homo sapiens, CHO, read-out: Aβ 42 IC50
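Note: Aβ(1-42) released into conditioned medium captured by ELISA after roughly 24 h compound exposure, vehicle and inhibitor controls defining maximal and minimal inhibition.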
Procedure: Cell-Based γ-Secretase Assay with ELISA Readout
The ability of compounds to modulate production of amyloid beta protein Aβ(1-42) was determined using human WT-APP overexpressing CHO cells. Cells were plated at 22,000 cells/100 μL well in 96 well tissue culture treated, clear plates (Falcon) in DMEM/F12 based medium and incubated for 24 hours at 37° C. […] Compounds were added in fresh medium to achieve 1% final DMSO. Appropriate vehicle and inhibitor controls were added to obtain maximum and minimum inhibition values for the assay before the plates were incubated for about 24 hours at 37° C.
Coating of ELISA assay plates was initiated by addition of 50 μL/well of an in house Aβ(1-42) specific antibody at (4 μg/mL) in 0.1 M NaHCO3 (pH 9.0) into black 384-well Maxisorp® plates (Nunc) and incubated overnight at 4° C. […] Ambient temperature incubation was allowed to proceed for a minimum of two hours before washing 2×100 μL with Wash Buffer (Dulbecco's PBS, 0.05% Tween 20). Assay Buffer (Dulbecco's PBS, 1.0% BSA (Sigma A7030), 0.05% Tween 20) 20 μL/well is then added.
After incubation overnight at 37° C., 5% CO2, 40 μL (in duplicate) of experimental conditioned media are transferred into wells of the blocked ELISA plates containing the capture antibody, followed by overnight incubation at 4° C.
After overnight incubation of the ELISA assay plates at 4° C., unbound Aβ peptides were removed thorough (4×100 μL) washes with Wash Buffer.

Compound | IC50 [nM]
CCOc1cccc(CCNC(=O)c2ccc(-n3cnc(C)c3)c(OC)c2)c1 [Example 112, N-[2-(3-ethoxyphenyl)ethyl]-3-methoxy-4-(4-methyl-1H-imidazol-1-yl)benzamide] | 765

Same assay, conditions: Homo sapiens, CHO, read-out: Aβ 42 IC50, Geometric mean of 2-8 determinations; human WT-APP overexpressing CHO cells

Compound | IC50 [nM]
COc1cc(C(=O)NC2CCCc3c(O)cccc32)ccc1-n1cnc(C)c1 (stereo not drawn) [Example 106, N-(5-hydroxy-1,2,3,4-tetrahydronaphthalen-1-yl)-3-methoxy-4-(4-methyl-1H-imidazol-1-yl)benzamide] | 731
COc1cc(C(=O)NC(c2ccc(F)cc2)c2nc3ccccc3n2C)ccc1-n1cnc(C)c1 (stereo not drawn) [Example 107, N-[(4-fluorophenyl)(1-methyl-1H-benzimidazol-2-yl)methyl]-3-methoxy-4-(4-methyl-1H-imidazol-1-yl)benzamide] | 735
COc1ccc(OC)c(C2CCN(C(=O)c3ccc(-n4cnc(C)c4)c(OC)c3)C2)c1 (stereo not drawn) [Example 109, 1-(4-{[3-(2,5-dimethoxyphenyl)pyrrolidin-1-yl]carbonyl}-2-methoxyphenyl)-4-methyl-1H-imidazole] | 739
COc1cc(C(=O)NCC(c2ccc(C(F)(F)F)cc2)N2CCOCC2)ccc1-n1cnc(C)c1 (stereo not drawn) [Example 111, 3-methoxy-4-(4-methyl-1H-imidazol-1-yl)-N-{2-morpholin-4-yl-2-[4-(trifluoromethyl)phenyl]ethyl}benzamide] | 756
COc1cc(C(=O)N[C@@H]2CCC[C@@H]2c2ccc(F)cc2)ccc1-n1cnc(C)c1 [Example 115, N-[(1R,2R)-2-(4-fluorophenyl)cyclopentyl]-3-methoxy-4-(4-methyl-1H-imidazol-1-yl)benzamide] | 798
COc1cc(C(=O)NCc2cc(-c3ccc(F)cc3)on2)ccc1-n1cnc(C)c1 [Example 116, N-{[5-(4-fluorophenyl)isoxazol-3-yl]methyl}-3-methoxy-4-(4-methyl-1H-imidazol-1-yl)benzamide] | 815
COc1cc(C(=O)N2CCC(Oc3cccc(C(F)(F)F)c3)CC2)ccc1-n1cnc(C)c1 [Example 119, 1-[3-methoxy-4-(4-methyl-1H-imidazol-1-yl)benzoyl]-4-[3-(trifluoromethyl)phenoxy]piperidine] | 847
COc1cc(C(=O)NCC2COc3ccccc3C2)ccc1-n1cnc(C)c1 (stereo not drawn) [Example 122, N-(3,4-dihydro-2H-chromen-3-ylmethyl)-3-methoxy-4-(4-methyl-1H-imidazol-1-yl)benzamide] | 976
CCOc1cc(C)c(CN(C(=O)c2ccc(-n3cnc(C)c3)c(OC)c2)C2CC2)cc1C(C)C [Example 124, N-cyclopropyl-N-(4-ethoxy-5-isopropyl-2-methylbenzyl)-3-methoxy-4-(4-methyl-1H-imidazol-1-yl)benzamide] | 114
COc1cc(C(=O)N[C@H]2CCc3ccc(Cl)cc32)ccc1-n1cnc(C)c1 [Example 129, N-[(1S)-6-chloro-2,3-dihydro-1H-inden-1-yl]-3-methoxy-4-(4-methyl-1H-imidazol-1-yl)benzamide] | 605
COc1cc(C(=O)NC2COc3ccc(C(F)(F)F)cc32)ccc1-n1cnc(C)c1 (stereo not drawn) [Example 130, 3-methoxy-4-(4-methyl-1H-imidazol-1-yl)-N-[5-(trifluoro-methyl)-2,3-dihydro-1-benzofuran-3-yl]benzamide] | 666
COc1cc(C(=O)N2CC(COc3ccccc3C(F)(F)F)C2)ccc1-n1cnc(C)c1 [Example 131, 1-{2-methoxy-4-[(3-{[2-(trifluoro-methyl)phenoxy]methyl}azetidin-1-yl)carbonyl]phenyl}-4-methyl-1H-imidazole] | 311
COc1cc(C(=O)N2CCC(COc3ccccc3C(F)(F)F)C2)ccc1-n1cnc(C)c1 (stereo not drawn) [Example 132, 1-{2-methoxy-4-[(3-{[2-(tri-fluoromethyl)phenoxy]methyl}pyrrolidin-1-yl)carbonyl]phenyl}-4-methyl-1H-imidazole] | 472
COc1cc(C(=O)N2CC(COc3cccc(C(F)(F)F)c3)C2)ccc1-n1cnc(C)c1 [Example 133, 1-{2-methoxy-4-[(3-{[3-(trifluoromethyl)phenoxy]methyl}azetidin-1-yl)carbonyl]phenyl}-4-methyl-1H-imidazole] | 496
COc1cc(C(=O)N2CCCC2COc2ccccc2C(F)(F)F)ccc1-n1cnc(C)c1 (stereo not drawn) [Example 134, 1-{2-methoxy-4-[(2-{[2-(tri-fluoromethyl)phenoxy]methyl}pyrrolidin-1-yl)carbonyl]phenyl}-4-methyl-1H-imidazole] | 675

Same assay, conditions: Homo sapiens, CHO, read-out: Aβ 42 IC50, Geometric mean of at least 2 determinations; human WT-APP overexpressing CHO cells

Compound | IC50 [nM]
COc1cc(C(=O)N2CC(COc3cccc4ccccc34)C2)ccc1-n1cnc(C)c1 [Example 135, 1-[2-methoxy-4-({3-[(1-naphthyloxy)methyl]azetidin-1-yl}carbonyl)phenyl]-4-methyl-1H-imidazole trifluoroacetate salt] | 111
COc1cc(C(=O)N2CC(COc3ccc(F)c(C)c3Cl)C2)ccc1-n1cnc(C)c1 [Example 136, 1-[4-({3-[(2-chloro-4-fluoro-3-methyl-phenoxy)methyl]azetidin-1-yl}carbonyl)-2-methoxyphenyl]-4-methyl-1H-imidazole trifluoroacetate salt] | 311
COc1cc(C(=O)N2CC(COc3cccc4c3CCC4)C2)ccc1-n1cnc(C)c1 [Example 137, 1-[4-({3-[(2,3-dihydro-1H-inden-4-yloxy)methyl]azetidin-1-yl}carbonyl)-2-methoxyphenyl]-4-methyl-1H-imidazole trifluoroacetate salt] | 411
CCc1cc(F)ccc1OCC1CN(C(=O)c2ccc(-n3cnc(C)c3)c(OC)c2)C1 [Example 138, 1-[4-({3-[(2-ethyl-4-fluorophenoxy)methyl]azetidin-1-yl}carbonyl)-2-methoxyphenyl]-4-methyl-1H-imidazole trifluoroacetate salt] | 537
CCc1ccccc1OCC1CN(C(=O)c2ccc(-n3cnc(C)c3)c(OC)c2)C1 [Example 140, 1-[4-({3-[(2-ethylphenoxy)methyl]azetidin-1-yl}carbonyl)-2-methoxyphenyl]-4-methyl-1H-imidazole trifluoroacetate salt] | 593

Same assay, conditions: Homo sapiens, CHO, read-out: Aβ 42 IC50, Single IC50 determination; human WT-APP overexpressing CHO cells

Compound | IC50 [nM]
COc1cc(C(=O)N2CC(Oc3cc(Cl)ccc3Cl)C2)ccc1-n1cnc(C)c1 [Example 108, 1-(4-{[3-(2,5-dichlorophenoxy)azetidin-1-yl]carbonyl}-2-methoxyphenyl)-4-methyl-1H-imidazole] | 738
COc1ccc2c(c1)CCC2NC(=O)c1ccc(-n2cnc(C)c2)c(OC)c1 (stereo not drawn) [Example 120, 3-methoxy-N-(5-methoxy-2,3-dihydro-1H-inden-1-yl)-4-(4-methyl-1H-imidazol-1-yl)benzamide] | 878

Same assay, conditions: read-out: Aβ 42 IC50

Compound | IC50 [nM]
COc1cc(C(=O)N[C@@H](C)c2ccc(C)cc2)ccc1-n1cnc(C)c1 [Example 110, 3-methoxy-4-(4-methyl-1H-imidazol-1-yl)-N-[(1S)-1-(4-methylphenyl)ethyl) benzamide] | 747

Same assay, conditions: read-out: Aβ 42 IC50; Geometric mean of 2-8 determinations; human WT-APP overexpressing CHO cells

Compound | IC50 [nM]
COc1ccc(C2(CNC(=O)c3ccc(-n4cnc(C)c4)c(OC)c3)CCCC2)cc1 [Example 105, 3-methoxy-N-{[1-(4-methoxyphenyl)cyclopentyl]methyl}-4-(4-methyl-1H-imidazol-1-yl) benzamide] | 708
COc1cc(C(=O)NCC2CCc3ccccc3C2)ccc1-n1cnc(C)c1 (stereo not drawn) [Example 113, 3-methoxy-4-(4-methyl-1H-imidazol-1-yl)-N-(1,2,3,4-tetrahydro-naphthalen-2-ylmethyl) benzamide] | 784
COc1cc(C(=O)NC2CCc3ccccc3C2)ccc1-n1cnc(C)c1 (stereo not drawn) [Example 114, 3-methoxy-4-(4-methyl-1H-imidazol-1-yl)-N-(1,2,3,4-tetrahydro-naphthalen-2-yl) benzamide] | 793
COc1cc(C(=O)NCCc2c(C)[nH]c3ccccc23)ccc1-n1cnc(C)c1 [Example 117, 3-methoxy-4-(4-methyl-1H-imidazol-1-yl)-N-[2-(2-methyl-1H-indol-3-yl)ethyl] benzamide] | 828
COc1cc(C(=O)N(C)Cc2cccc3ccccc23)ccc1-n1cnc(C)c1 [Example 118, 3-methoxy-N-methyl-4-(4-methyl-1H-imidazol-1-yl)-N-(1-naphthylmethyl) benzamide] | 837
COc1cc(C(=O)NCCc2nc3cc(C)ccc3o2)ccc1-n1cnc(C)c1 [Example 121, 3-methoxy-N-[2-(5-methyl-1,3-benzoxazol-2-yl)ethyl]-4-(4-methyl-1H-imidazol-1-yl) benzamide] | 880
COc1cc(C(=O)N(Cc2cc(-c3ccccc3)ccc2C)C2CC2)ccc1-n1cnc(C)c1 [Example 123, N-cyclopropyl-3-methoxy-N-[(4-methylbi-phenyl-3-yl)methyl]-4-(4-methyl-1H-imidazol-1-yl) benzamide] | 73
COc1cc(C(=O)N(Cc2cc(C(C)C)ccc2C)C2CC2)ccc1-n1cnc(C)c1 [Example 125, N-cyclopropyl-N-(5-isopropyl-2-methylbenzyl)-3-methoxy-4-(4-methyl-1H-imidazol-1-yl) benzamide] | 185
COc1cc(C(=O)N[C@@H](C)c2cccc(-c3ccccc3)c2)ccc1-n1cnc(C)c1 [Example 126, N-[(1S)-1-biphenyl-3-ylethyl]-3-methoxy-4-(4-methyl-1H-imidazol-1-yl) benzamide] | 492
N-[2-(4-fluoro- phenyl)-1,1- dimethylethyl]- 3-methoxy-4- (4-methyl-1H- imidazol-1-yl) benzamide [Example 37] | 519
N-[3-(3- chlorophenyl) propyl]-3- methoxy-4-(4- methyl-1H- imidazol-1-yl) benzamide [Example 46] | 579
N-{[3-(3- chlorophenyl)- 4,5-dihydro- isoxazol-5-yl] methyl}-3- methoxy-4- (4-methyl-1H- imidazol-1-yl) benzamide [Example 12] | 1310
